Laboratory results: patent US20070128217A1 (priority 2003, published 2007)

Legend:
[1] = system: antibodies in sera from SARS patients (sera 1a, 1b, 2, 6, 37, 62, London, SARS-yellow, SARS-green); assay type: binding, human; design: Binding of serum 6 to linear peptides of protein X1 of SARS-CoV Urbani / Binding of serum 37 to linear peptides of protein X1 of SARS-CoV Urbani / Binding of serum 6 to looped/cyclic peptide (PEPSCAN-ELISA) / Binding of serum 37 to looped/cyclic peptide (PEPSCAN-ELISA) / Binding of serum 37 to looped/cyclic peptides of protein X1 of SARS-CoV Urbani / Binding of serum 6 to linear peptides of protein X2 / Binding of serum 37 to linear peptides of protein X2 / Binding of serum 37 to looped/cyclic peptides of protein X2 of SARS-CoV Urbani / Binding of serum 6 to linear peptides of protein M of SARS-CoV Urbani / Binding of serum 37 to linear peptides of protein M of SARS-CoV Urbani / Binding of serum 6 to looped/cyclic peptides of protein M of SARS-CoV Urbani / Binding of serum 37 to looped/cyclic peptides of protein M of SARS-CoV Urbani / Binding of serum 6 to linear peptides of protein X3 of SARS-CoV Urbani / Binding of serum 37 to linear peptides of protein X3 of SARS-CoV Urbani / Binding of serum 37 to looped/cyclic peptides of protein X3 of SARS-CoV Urbani / Binding of serum 6 to linear peptides of protein X4 of SARS-CoV Urbani / Binding of serum 37 to linear peptides of protein X4 of SARS-CoV Urbani / Binding of serum 37 to looped/cyclic peptides of protein X4 of SARS-CoV Urbani / Binding of serum 6 to linear peptides of protein X5 of SARS-CoV Urbani / Binding of serum 37 to linear peptides of protein X5 of SARS-CoV Urbani / Binding of serum 37 to looped/cyclic peptides of protein X5 of SARS-CoV Urbani / Binding of serum 6 to linear peptides of protein N of SARS-CoV Urbani / Binding of serum 37 to linear peptides of protein N of SARS-CoV Urbani / Binding of serum 6 to linear peptide (PEPSCAN-ELISA) / Binding of serum 1a to looped/cyclic peptides of protein N of SARS-CoV Urbani / Binding of serum 1b to looped/cyclic peptides of protein N of SARS-CoV Urbani / Binding of serum 2 to looped/cyclic peptides of protein N of SARS-CoV Urbani / Binding of serum 6 to looped/cyclic peptides of protein N of SARS-CoV Urbani / Binding of serum 37 to looped/cyclic peptides of protein N of SARS-CoV Urbani / Binding of serum 62 to looped/cyclic peptides of protein N of SARS-CoV Urbani / Binding of serum London to looped/cyclic peptides of protein N of SARS-CoV Urbani / Binding of serum SARS-green to looped/cyclic peptides of protein N of SARS-CoV Urbani: unit not given here
[2] = system: control sera (pooled serum of ten healthy LUMC hospital workers; commercial negative donor pooled serum from the Dutch bloodbank); assay type: binding, human; design: Binding of Control serum LUMC to linear peptides / Binding of Control serum Blood-bank to linear peptides / Binding of Control serum LUMC to looped peptides / Binding of Control Serum Blood-Bank to Looped peptides / Binding of Control serum LUMC to linear peptides of the protein M of SARS-CoV Urbani / Binding of Control serum Blood-bank to linear peptides of the protein M of SARS-CoV Urbani / Binding of Control serum LUMC to looped peptides of the protein M of SARS-CoV Urbani / Binding of Control Serum Blood-Bank to Looped peptides of the protein M of SARS-CoV Urbani: unit not given here
[3] = system: rabbit serum obtained by immunizing a rabbit with the SARS-CoV strain Frankfurt 1; assay type: binding; design: Binding of a rabbit serum to linear peptides / Binding of a rabbit serum to looped peptides / Rabbit serum linear peptides / Rabbit serum looped peptides / Binding of a rabbit serum to linear peptides of protein N of SARS-CoV Urbani (Rabbit serum linear peptides) / Binding of a rabbit serum to looped/cyclic peptides of protein N of SARS-CoV Urbani (Rabbit serum looped peptides): unit not given here

QTLVLKMLHSSSLTS
0.7: Binding of serum 1a to linear peptides of protein X2 [1] | Binding of serum SARS-yellow to linear peptides of protein X2 [1] | Binding of Control serum Blood-bank to linear peptides [2]
0.3: Binding of serum 2 to looped/cyclic peptides of protein X2 of SARS-CoV Urbani [1] | Binding of serum SARS-green to looped/cyclic peptides of protein X2 of SARS-CoV Urbani [1] | Binding of a rabbit serum to linear peptides [3]
0.4: Binding of serum 1b to looped/cyclic peptides of protein X2 of SARS-CoV Urbani [1] | Binding of serum 37 to looped/cyclic peptides of protein X2 of SARS-CoV Urbani [1] | Binding of serum London to linear peptides of protein X2 [1] | Binding of serum SARS-yellow to looped/cyclic peptides of protein X2 of SARS-CoV Urbani [1] | Binding of Control serum LUMC to linear peptides [2] | Binding of a rabbit serum to looped peptides [3]
0.9: Binding of serum London to looped/cyclic peptides of protein X2 of SARS-CoV Urbani [1]
0.6: Binding of serum 1a to looped/cyclic peptides of protein X2 of SARS-CoV Urbani [1] | Binding of serum 62 to linear peptides of protein X2 [1] | Binding of serum 62 to looped/cyclic peptides of protein X2 of SARS-CoV Urbani [1] | Binding of Control serum LUMC to looped peptides [2]
0.5: Binding of serum 1b to linear peptides of protein X2 [1] | Binding of serum 2 to linear peptides of protein X2 [1] | Binding of serum 6 to linear peptides of protein X2 [1] | Binding of serum 6 to looped/cyclic peptides of protein X2 of SARS-CoV Urbani [1] | Binding of serum 37 to linear peptides of protein X2 [1] | Binding of serum SARS-green to linear peptides of protein X2 [1] | Binding of Control Serum Blood-Bank to Looped peptides [2]

QVTIAEILIIIMRTF
0.9: Binding of Control Serum Blood-Bank to Looped peptides of the protein X3 of SARS-CoV Urbani [2]
0.6: Binding of serum 37 to looped/cyclic peptides of protein X3 of SARS-CoV Urbani [1] | Rabbit serum looped peptides [3]
0.7: Binding of serum 1a to linear peptides of protein X3 of SARS-CoV Urbani [1] | Binding of serum 1a to looped/cyclic peptides of protein X3 of SARS-CoV Urbani [1] | Binding of serum 62 to linear peptides of protein X3 of SARS-CoV Urbani [1] | Binding of serum London to linear peptides of protein X3 of SARS-CoV Urbani [1] | Binding of serum SARS-yellow to looped/cyclic peptides of protein X3 of SARS-CoV Urbani [1] | Binding of Control serum Blood-bank to linear peptides of the protein X3 of SARS-CoV Urbani [2] | Binding of Control serum LUMC to linear peptides of the protein X3 of SARS-CoV Urbani [2] | Binding of Control serum LUMC to looped peptides of the protein X3 of SARS-CoV Urbani [2]
0.3: Binding of serum 1b to looped/cyclic peptides of protein X3 of SARS-CoV Urbani [1] | Rabbit serum linear peptides [3]
0.4: Binding of serum 1b to linear peptides of protein X3 of SARS-CoV Urbani [1] | Binding of serum 37 to linear peptides of protein X3 of SARS-CoV Urbani [1] | Binding of serum 62 to looped/cyclic peptides of protein X3 of SARS-CoV Urbani [1] | Binding of serum SARS-green to linear peptides of protein X3 of SARS-CoV Urbani [1]
0.5: Binding of serum 2 to linear peptides of protein X3 of SARS-CoV Urbani [1] | Binding of serum 2 to looped/cyclic peptides of protein X3 of SARS-CoV Urbani [1] | Binding of serum 6 to linear peptides of protein X3 of SARS-CoV Urbani [1] | Binding of serum 6 to looped/cyclic peptides of protein X3 of SARS-CoV Urbani [1]
0.2: Binding of serum London to looped/cyclic peptides of protein X3 of SARS-CoV Urbani [1] | Binding of serum SARS-green to looped/cyclic peptides of protein X3 of SARS-CoV Urbani [1] | Binding of serum SARS-yellow to linear peptides of protein X3 of SARS-CoV Urbani [1]

RARSVSPKLFIRQEE
0.5: Binding of serum London to looped/cyclic peptides of protein X4 of SARS-CoV Urbani [1] | Binding of Control serum LUMC to linear peptides [2]
0.8: Binding of serum 1a to linear peptides of protein X4 of SARS-CoV Urbani [1] | Binding of serum 1a to looped/cyclic peptides of protein X4 of SARS-CoV Urbani [1] | Binding of serum 6 to looped/cyclic peptides of protein X4 of SARS-CoV Urbani [1] | Binding of serum 62 to linear peptides of protein X4 of SARS-CoV Urbani [1] | Binding of serum London to linear peptides of protein X4 of SARS-CoV Urbani [1] | Binding of Control serum LUMC to looped peptides [2]
0.4: Binding of serum 2 to linear peptides of protein X4 of SARS-CoV Urbani [1]
0.6: Binding of serum 1b to linear peptides of protein X4 of SARS-CoV Urbani [1] | Binding of serum 2 to looped/cyclic peptides of protein X4 of SARS-CoV Urbani [1] | Binding of serum 6 to linear peptides of protein X4 of SARS-CoV Urbani [1] | Binding of serum SARS-green to linear peptides of protein X4 of SARS-CoV Urbani [1] | Binding of Control serum Blood-bank to linear peptides [2]
recognized: Recognition of the peptide by the rabbit serum [3]
0.7: Binding of serum 1b to looped/cyclic peptides of protein X4 of SARS-CoV Urbani [1] | Binding of serum 37 to linear peptides of protein X4 of SARS-CoV Urbani [1] | Binding of serum 37 to looped/cyclic peptides of protein X4 of SARS-CoV Urbani [1] | Binding of serum 62 to looped/cyclic peptides of protein X4 of SARS-CoV Urbani [1] | Binding of serum SARS-green to looped/cyclic peptides of protein X4 of SARS-CoV Urbani [1] | Binding of serum SARS-yellow to looped/cyclic peptides of protein X4 of SARS-CoV Urbani [1] | Binding of Control Serum Blood-Bank to Looped peptides [2]
0.1: Binding of serum SARS-yellow to linear peptides of protein X4 of SARS-CoV Urbani [1]

RCDIKDLPKEITVAT
0.3: Binding of serum 6 to linear peptides of protein M of SARS-CoV Urbani [1] | Binding of serum London to linear peptides of protein M of SARS-CoV Urbani [1] | Rabbit serum looped peptides [3]
0.4: Binding of serum 1b to looped/cyclic peptides of protein M of SARS-CoV Urbani [1] | Binding of serum SARS-green to looped/cyclic peptides of protein M of SARS-CoV Urbani [1]
0.0: Rabbit serum linear peptides [3]
0.6: Binding of serum 1a to looped/cyclic peptides of protein M of SARS-CoV Urbani [1] | Binding of serum 2 to looped/cyclic peptides of protein M of SARS-CoV Urbani [1] | Binding of serum 6 to looped/cyclic peptides of protein M of SARS-CoV Urbani [1] | Binding of serum 37 to looped/cyclic peptides of protein M of SARS-CoV Urbani [1] | Binding of serum 62 to linear peptides of protein M of SARS-CoV Urbani [1] | Binding of serum 62 to looped/cyclic peptides of protein M of SARS-CoV Urbani [1] | Binding of Control Serum Blood-Bank to Looped peptides of the protein M of SARS-CoV Urbani [2]
0.7: Binding of serum 1a to linear peptides of protein M of SARS-CoV Urbani [1] | Binding of serum SARS-yellow to looped/cyclic peptides of protein M of SARS-CoV Urbani [1] | Binding of Control serum Blood-bank to linear peptides of the protein M of SARS-CoV Urbani [2] | Binding of Control serum LUMC to looped peptides of the protein M of SARS-CoV Urbani [2]
0.5: Binding of serum 1b to linear peptides of protein M of SARS-CoV Urbani [1] | Binding of serum 2 to linear peptides of protein M of SARS-CoV Urbani [1] | Binding of serum 37 to linear peptides of protein M of SARS-CoV Urbani [1] | Binding of serum SARS-green to linear peptides of protein M of SARS-CoV Urbani [1] | Binding of Control serum LUMC to linear peptides of the protein M of SARS-CoV Urbani [2]
0.2: Binding of serum London to looped/cyclic peptides of protein M of SARS-CoV Urbani [1] | Binding of serum SARS-yellow to linear peptides of protein M of SARS-CoV Urbani [1]

RGNTYSTAWLCALGK
1.0: Binding of Control serum Blood-bank to linear peptides [2]
0.6: Binding of serum 1b to linear peptides of protein X5 of SARS-CoV Urbani [1] | Binding of serum 2 to looped/cyclic peptides of protein X5 of SARS-CoV Urbani [1] | Binding of serum SARS-green to linear peptides of protein X5 of SARS-CoV Urbani [1] | Binding of Control serum LUMC to linear peptides [2] | Binding of Control serum LUMC to looped peptides [2]
1.4: Binding of serum London to looped/cyclic peptides of protein X5 of SARS-CoV Urbani [1]
0.8: Binding of serum 37 to linear peptides of protein X5 of SARS-CoV Urbani [1] | Binding of serum 62 to linear peptides of protein X5 of SARS-CoV Urbani [1] | Binding of serum London to linear peptides of protein X5 of SARS-CoV Urbani [1] | Rabbit serum looped peptides [3]
0.7: Binding of serum 6 to linear peptides of protein X5 of SARS-CoV Urbani [1] | Binding of serum 62 to looped/cyclic peptides of protein X5 of SARS-CoV Urbani [1]
0.5: Binding of serum 37 to looped/cyclic peptides of protein X5 of SARS-CoV Urbani [1] | Binding of serum SARS-yellow to looped/cyclic peptides of protein X5 of SARS-CoV Urbani [1]
0.4: Binding of serum 1a to looped/cyclic peptides of protein X5 of SARS-CoV Urbani [1] | Binding of Control Serum Blood-Bank to Looped peptides [2]
1.3: Rabbit serum linear peptides [3]
0.9: Binding of serum 1a to linear peptides of protein X5 of SARS-CoV Urbani [1] | Binding of serum 2 to linear peptides of protein X5 of SARS-CoV Urbani [1] | Binding of serum 6 to looped/cyclic peptides of protein X5 of SARS-CoV Urbani [1]
0.3: Binding of serum 1b to looped/cyclic peptides of protein X5 of SARS-CoV Urbani [1] | Binding of serum SARS-green to looped/cyclic peptides of protein X5 of SARS-CoV Urbani [1] | Binding of serum SARS-yellow to linear peptides of protein X5 of SARS-CoV Urbani [1]
